16 compounds from PubChem BioAssay (NCI) can be followed below.

Each structure is given as a SMILES string.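 Five concentrations, 48 hours, 96-well plates. At the GI50, growth is halved. TGI marks complete inhibition of growth.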 Some results are limits rather than exact numbers.

Common to all, as to experiment: NCI tumour cell line growth inhibition, 48 h
Assay [1] concerns HCC-2998 colon.
The subject of assay [2] is EKVX NSCLC.
In assay [3] the test system is HOP-62 NSCLC.
Assay [4] deals with RPMI-8226 leukemia.
The test system of assay [5] is LOX IMVI melanoma.
Assay [6] relates to OVCAR-3 ovarian.
In assay [7] the test system is NCI-H226 lung.
For assay [8], the system named is OVCAR-8 ovarian.
In assay [9] the test system is SK-MEL-5 melanoma.
Assay [10] has as its system K-562 leukemia.

Take `CC1(C)N=C(N)N=C(N)N1c1ccc(F)c(C(F)(F)F)c1`: the GI50 was 1.85 µM in [1]; 1.53 µM in assay [2]; 3.42 µM in [4]; 400 nM in assay [5]; 5.62 µM in assay [6]; more than 27.6 µM in assay [7]. Further, the results for the GI50 in assay [8], in assay [9] and in assay [10] were 0.597 µM, 3.04 µM and 121 nM, respectively. Besides, the TGI in [1], in assay [2], in assay [3], in assay [4], in assay [5] and in assay [6] was more than 100 µM throughout. In addition, the TGI in assay [7], in [8], in assay [9] and in assay [10] was more than 100 µM throughout.
As for `O=Cc1ccc(-c2ccc(-c3ccc(C=O)s3)o2)s1`, the TGI was 51.5 µM in [1]; more than 90 µM in [2]; more than 100 µM in assay [3]; more than 100 µM in assay [4]; more than 100 µM in assay [5]; 5.89 µM in assay [6]. Besides, the TGI in assay [7] is 2.46 µM; in assay [8], more than 100 µM; in [9], more than 100 µM; in assay [10], more than 100 µM.
Consider `O=C(Nc1ccc(Br)cc1)Nc1n[nH]c2ccccc12`, for which the GI50 in assay [1] was more than 100 µM; in assay [2], more than 100 µM; in assay [3], more than 100 µM; in assay [5] it was more than 100000 nM; in assay [6], more than 100 µM; in assay [7], more than 91 µM. The GI50 is 71.2 µM in assay [8], more than 88.7 µM in assay [9] and 59100 nM in assay [10]. Moreover, the TGI in assay [1], in assay [2], in assay [3], in assay [4], in [5] and in assay [6] was more than 100 µM throughout. Moreover, the TGI in assay [7], in [8], in assay [9] and in [10] was more than 100 µM throughout.
In the case of `CC(=O)/C=C/C1=C(c2cc3ccccc3s2)c2ccccc2CC1`, the GI50 in [1] was 22.7 µM; in assay [2], 39.5 µM; in assay [3] it was 36.5 µM; in assay [4] it was 3.86 µM; in assay [5], 20300 nM; in assay [6] it was 19.4 µM. Moreover, the GI50 is 19.8 µM in assay [7], 39.4 µM in assay [8], 16.3 µM in assay [9] and 15200 nM in assay [10]. Besides, the TGI in assay [1] was 50.2 µM; in [2] it was more than 100 µM; in assay [3], more than 100 µM; in assay [4] it was 24.4 µM; in assay [5], 67.3 µM; in assay [6], 45 µM. Besides, the TGI is 40.8 µM in [7], more than 100 µM in assay [8], 35.3 µM in assay [9] and more than 100 µM in assay [10].
Regarding `O=C1OC(c2ccc(O)c(-c3ccccc3)c2)(c2ccc(O)c(-c3ccccc3)c2)c2c(Cl)c(Cl)c(Cl)c(Cl)c21`, the TGI in assay [1], in [2], in assay [3], in [4], in assay [5] and in assay [6] was more than 100 µM each time. The TGI in assay [7], in [8], in [9] and in [10] was more than 100 µM in each case.
For the compound `O=C(O)/C(=C/c1ccccc1[N+](=O)[O-])c1ccccc1`, the TGI in [1], in assay [2], in assay [3], in assay [4], in [5] and in assay [6] was more than 100 µM throughout. Moreover, the TGI in assay [7], in [8], in assay [9] and in assay [10] was more than 100 µM in each case.
For `COc1cccc(/C=N\Nc2ccc([N+](=O)[O-])cn2)c1O`, the GI50 in assay [1] was 8.01 µM; in [2], 3.59 µM; in [3], 3.89 µM; in assay [4], 3.21 µM; in assay [5], 2580 nM; in assay [6] it was 2.38 µM. Also, the GI50 in assay [7] is 3.72 µM; in assay [8], 2.55 µM; in assay [9], 1.76 µM; in assay [10], 3120 nM. In addition, the TGI in [1] was more than 100 µM; in assay [2], 29.3 µM; in [3], 25.5 µM; in assay [4] it was 27.8 µM; in assay [5] it was 14.6 µM; in assay [6], 12 µM. The TGI in [7] is 26.2 µM; in assay [8], 15.6 µM; in assay [9] it was 5.92 µM; in assay [10] it was more than 100 µM.
As for `COCCOC(=O)C1=C(C)NC2=C(C(=O)CC(c3ccccc3OC)C2)C1c1cccc(O)c1` (stereo not drawn), the GI50 is 12.2 µM in assay [1]; 14.4 µM in assay [2]; 5.84 µM in [3]; 4.01 µM in assay [4]; 9040 nM in assay [5]; 9.13 µM in assay [6]. Besides, the GI50 was 8.64 µM in assay [7], 11.3 µM in [8], 3.54 µM in assay [9] and 7970 nM in [10]. Moreover, the TGI in assay [1] was 27 µM; in [2] it was more than 100 µM; in [3] it was 44.3 µM; in [4], 31.4 µM; in assay [5], 30.4 µM; in [6] it was 23.9 µM. Moreover, the TGI in assay [7] was 35.7 µM; in assay [8], 34.9 µM; in [9] it was 16.6 µM; in assay [10], more than 85.4 µM.
With `O=C1Nc2ccccc2C1Cc1ccccc1` (stereo not drawn), the TGI in [1], in [2], in [3], in assay [4], in assay [5] and in [6] was more than 100 µM each time. For the same compound, the TGI in assay [7], in assay [8], in assay [9] and in assay [10] was more than 100 µM throughout.
`O=C1C=C(Nc2ccccc2C(=O)CC(=O)C(=O)Nc2cccc(C(F)(F)F)c2)c2ccccc2C1=O`: the TGI in assay [1] was more than 78 µM; in assay [2], 98.7 µM; in assay [3] it was more than 72.7 µM; in [4] it was more than 100 µM; in assay [5], 27.3 µM; in assay [6], 53.8 µM. Further, the TGI was more than 100 µM in assay [7], 56.4 µM in assay [8], 30.8 µM in assay [9] and more than 94.9 µM in [10].
On to `C(=C1c2ccccc2-c2ccccc21)c1ccccn1`, for which the GI50 in assay [1] was 13 µM; in assay [2] it was 5.85 µM; in [3], 6.61 µM; in assay [4] it was 16.2 µM; in assay [5], 8520 nM; in assay [6], 3.66 µM. For the same compound, the GI50 was 14.2 µM in assay [7], 15.6 µM in assay [8], 11.5 µM in assay [9] and 3930 nM in assay [10]. Moreover, the TGI in assay [1] was 46.3 µM; in assay [2], 38.3 µM; in [3], 60.8 µM; in [4], more than 100 µM; in assay [5], 25.8 µM; in assay [6] it was 15.9 µM. In addition, the TGI is more than 100 µM in assay [7], 77.8 µM in assay [8], 26.5 µM in [9] and more than 100 µM in [10].
As to `Cn1c(=O)cc2c3c(c(NCCCO)ccc31)C(=O)c1ccccc1-2`, the GI50 in assay [1] was 5.23 µM; in assay [2] it was 5.23 µM; in assay [3], 19.2 µM; in [4], 2.89 µM; in assay [5], 1440 nM; in [6] it was 5.69 µM. The GI50 in assay [7] was 3.01 µM; in assay [8] it was 1.48 µM; in [9] it was 3.97 µM; in assay [10] it was 2090 nM. Moreover, the TGI in [1] is more than 100 µM; in [2], more than 100 µM; in assay [3], more than 100 µM; in assay [4], more than 100 µM; in assay [5], 20.7 µM; in assay [6], more than 100 µM. The TGI in assay [7] was more than 100 µM; in [8], more than 100 µM; in [9] it was more than 100 µM; in assay [10], 64.3 µM.
Turning to `CC(=O)N1CC2Nc3ccccc3C2CC1CO` (stereo not drawn), the TGI in assay [1], in assay [2], in [3], in assay [4], in assay [5] and in [6] was more than 100 µM each time. The TGI in [7], in assay [8], in [9] and in assay [10] was more than 100 µM throughout.
Consider `COc1ccc(-c2n[nH]nc2-c2csc3ccccc23)cc1OC`, for which the GI50 in assay [1] is 4.21 µM; in assay [2], 3.42 µM; in assay [3] it was 2.18 µM; in assay [4] it was 3.64 µM; in assay [5] it was 3040 nM; in [6], 1.94 µM. Besides, the GI50 is 13.2 µM in [7], 4.24 µM in [8], 2.83 µM in [9] and 516 nM in assay [10]. For the same compound, the TGI in assay [1] is 19.4 µM; in assay [2] it was more than 100 µM; in assay [3], 24.3 µM; in assay [4], 59 µM; in assay [5], 15.7 µM; in assay [6] it was 7.63 µM. Also, the TGI in assay [7] was 74.6 µM; in assay [8] it was 39.1 µM; in assay [9], 8.79 µM; in assay [10], more than 100 µM.
Turning to `CN1C(=O)CNC(=O)[C@H](NC(=O)c2nc3ccccc3cc2O)CSSC[C@H]1C(=O)NCCc1nc2ccccc2cc1O`, the GI50 was 15.7 µM in assay [1]; 11 µM in assay [2]; 17.6 µM in assay [3]; 14.5 µM in assay [4]; 442 nM in assay [5]; 4.61 µM in assay [6]. The GI50 in assay [7] was 17.3 µM; in [8], 20.8 µM; in assay [9], 3.05 µM; in [10], 1570 nM. Also, the TGI in assay [1] was more than 75.9 µM; in [2] it was more than 61.4 µM; in assay [3], 53.4 µM; in assay [4], 62.3 µM; in assay [5] it was 6.77 µM; in assay [6] it was 18.2 µM. Also, the TGI in assay [7] is 65.2 µM; in assay [8], 53.9 µM; in assay [9], 12.7 µM; in assay [10], 13.9 µM.
Regarding `COc1cnc2c(c1)C(=O)c1c-2n(CCCn2ccnc2)c(=O)c2cc(Cl)ccc12`, the GI50 in assay [1] is 0.382 µM; in [2] it was 0.251 µM; in [3] it was 0.0211 µM; in assay [4], 0.0504 µM; in assay [5] it was 19.8 nM; in assay [6] it was 0.129 µM. For the same compound, the GI50 is 0.0464 µM in assay [7], 0.0389 µM in assay [8], 0.0387 µM in assay [9] and 34.7 nM in [10]. Moreover, the TGI in [1] was more than 100 µM; in [2], more than 100 µM; in assay [3] it was 0.0879 µM; in assay [4] it was 0.987 µM; in [5], 0.116 µM; in [6], 38.8 µM. For the same compound, the TGI in assay [7] is 0.892 µM; in assay [8], 14.3 µM; in assay [9] it was 0.164 µM; in assay [10] it was more than 100 µM.
